{"source": "patent US4642332A", "about": "“Effective hormonal peptides: D-3-Pal^6 -LHRH” (The Board of Regents, The University of Texas System, priority 1985, dated 1987)", "key": {"[1]": {"test_system": "pituitary cells from 21 day old rats", "assay": "In vitro pituitary incubate assay (release of LH and FSH)", "format": "cell-based, rat", "settings": "for FSH released into medium (ng/ml) ± SEM / LH ng/ml medium ± SEM: Table IV, mean of 9", "description": "The data in Tables IV and V are from the in vitro assay of the peptides with the pituitary incubate. This assay measures the release of LH and FSH in an in vitro system with pituitary cells from 21 day old rats. See, Bowers, C. Y. et al. on the inhibitory effects of leutinizing hormone releasing hormone analogs. Endocrinology, 106: 674 (1980).\nThe abbreviations are as follows: sc-subcutaneous, SEM-standard error of the mean; NS-not significant; ng-nanogram, and ml-milliliter. The p value represents the population coefficient .rho.(rho) which signifies whether a sample coefficient is significant or a chance deviation from zero."}, "21 day old female rats": {"test_system": "21 day old female rats", "assay": "In vivo assay in rats for release of LH and FSH", "parameters": "species or system rat", "settings": "for Serum FSH ng/ml SEM / Serum LH ng/ml SEM: Table IX, blood sample at ±60 minutes; for Serum FSH ng/ml SEM / Serum LH ng/ml SEM / FSH ng/ml Serum ± SEM at +120 min / LH ng/ml Serum ± SEM at +120 min: mean of 6; for FSH ng/ml Serum ± SEM at +120 min / LH ng/ml Serum ± SEM at +120 min: Table X; for +2 hrs LH ± SEM ng/ml serum / FSH ± SEM ng/ml serum (+2 hrs) / +3 hrs LH ± SEM ng/ml serum / FSH ± SEM ng/ml serum (+3 hrs): Table XI, mean 5-6", "description": "In vivo rat assay performed by a modification of the method of Bowers, C. Y. et al. Endocrinology, 106, 674 (1980). 21 day old female rats were injected sc with saline or peptide. Blood samples for the RIAs of LH and FSH were collected at +15, +60, +120, or +180 minutes. (Tables VI-XI)."}, "[2]": {"settings": "at 0.1 ng, statement on Table IV"}, "[3]": {"settings": "Table VI, 1.75 ng/rat sc, mean of 9"}, "[4]": {"settings": "Table VI, 5 ng/rat sc, mean of 9"}, "[5]": {"settings": "Table VI, 15 ng/rat sc, mean of 9"}, "[6]": {"settings": "Table VI, 50 ng/rat sc, mean of 9"}, "[7]": {"settings": "Table VIII first section (time not given), 15 ng/rat sc, mean of 5-6"}, "[8]": {"settings": "Table VIII first section (time not given), 150 ng/rat sc, mean of 5-6"}, "[9]": {"settings": "Table VIII, ±60 min after injection, 15 ng/rat sc, mean of 5-6"}, "[10]": {"settings": "Table VIII, ±60 min after injection, 150 ng/rat sc, mean of 5-6"}}, "data": [{"molecule": "CC(C)C[C@H](NC(=O)[C@@H](Cc1cccnc1)NC(=O)[C@H](Cc1ccc(O)cc1)NC(=O)[C@H](CO)NC(=O)[C@H](Cc1c[nH]c2ccccc12)NC(=O)[C@H](Cc1c[nH]cn1)NC(=O)[C@@H]1CCC(=O)N1)C(=O)N[C@@H](CCCNC(=N)N)C(=O)N1CCC[C@H]1C(=O)NCC(N)=O", "note": "[D-Pal^6 -LHRH, pyroGlu-His-Trp-Ser-Tyr-D-3-Pal-Leu-Arg-Pro-GlyNH2]", "values": [{"measurement": "FSH released into medium (ng/ml) ± SEM", "setting": "[1]; dosage 0.03 ng/ml medium", "result": "1062 ± 394"}, {"measurement": "LH ng/ml medium ± SEM", "setting": "[1]; dosage 0.03 ng/ml medium", "result": "73 ± 10", "unit": "ng/mL"}, {"measurement": "FSH released into medium (ng/ml) ± SEM", "setting": "[1]; dosage 0.1 ng/ml medium", "result": "3109 ± 486"}, {"measurement": "LH ng/ml medium ± SEM", "setting": "[1]; dosage 0.1 ng/ml medium", "result": "345 ± 72", "unit": "ng/mL"}, {"measurement": "FSH released into medium (ng/ml) ± SEM", "setting": "[1]; dosage 0.3 ng/ml medium", "result": "5126 ± 967"}, {"measurement": "LH ng/ml medium ± SEM", "setting": "[1]; dosage 0.3 ng/ml medium", "result": "811 ± 182", "unit": "ng/mL"}, {"measurement": "FSH released into medium (ng/ml) ± SEM", "setting": "[1]; dosage 1.0 ng/ml medium", "result": "9637 ± 1490"}, {"measurement": "LH ng/ml medium ± SEM", "setting": "[1]; dosage 1.0 ng/ml medium", "result": "1439 ± 233", "unit": "ng/mL"}, {"measurement": "activity for the release of LH, D-Pal^6 -LHRH compared with D-Qal^6 -LHRH", "setting": "[1]; [2]", "result": "essentially equivalent"}, {"measurement": "release of FSH, D-Pal^6 -LHRH compared with D-Qal^6 -LHRH", "setting": "[1]; [2]", "result": "same essential equivalents"}, {"measurement": "potency, D-Pal^6 -LHRH compared with D-Trp^6 -LHRH", "setting": "[1]; inferred from equivalence with D-Qal^6 -LHRH", "result": "essentially equipotent"}, {"measurement": "Serum FSH ng/ml SEM", "setting": "21 day old female rats; 50 ng/rat sc", "result": "3099 ± 361", "unit": "ng/mL"}, {"measurement": "Serum LH ng/ml SEM", "setting": "21 day old female rats; 50 ng/rat sc", "result": "120 ± 16", "unit": "ng/mL"}, {"measurement": "Serum FSH ng/ml SEM", "setting": "21 day old female rats; 150 ng/rat sc", "result": "3064 ± 677", "unit": "ng/mL"}, {"measurement": "Serum LH ng/ml SEM", "setting": "21 day old female rats; 150 ng/rat sc", "result": "122 ± 19", "unit": "ng/mL"}, {"measurement": "Serum FFSH ng/ml ± SEM", "setting": "21 day old female rats; [3]", "result": "471 ± 128", "unit": "ng/mL"}, {"measurement": "Serum LH ng/ml ± SEM", "setting": "21 day old female rats; [3]", "result": "1.5 ± 0.3", "unit": "ng/mL"}, {"measurement": "Serum FFSH ng/ml ± SEM", "setting": "21 day old female rats; [4]", "result": "738 ± 71", "unit": "ng/mL"}, {"measurement": "Serum LH ng/ml ± SEM", "setting": "21 day old female rats; [4]", "result": "7 ± 1", "unit": "ng/mL"}, {"measurement": "Serum FFSH ng/ml ± SEM", "setting": "21 day old female rats; [5]", "result": "1270 ± 140", "unit": "ng/mL"}, {"measurement": "Serum LH ng/ml ± SEM", "setting": "21 day old female rats; [5]", "result": "43 ± 7", "unit": "ng/mL"}, {"measurement": "Serum FFSH ng/ml ± SEM", "setting": "21 day old female rats; [6]", "result": "2267 ± 342", "unit": "ng/mL"}, {"measurement": "Serum LH ng/ml ± SEM", "setting": "21 day old female rats; [6]", "result": "103 ± 8", "unit": "ng/mL"}, {"measurement": "Serum FSH ng/ml ± SEM", "setting": "21 day old female rats; [7]", "result": "1711 ± 644", "unit": "ng/mL"}, {"measurement": "Serum LH ng/ml ± SEM", "setting": "21 day old female rats; [7]", "result": "36 ± 9", "unit": "ng/mL"}, {"measurement": "Serum FSH ng/ml ± SEM", "setting": "21 day old female rats; [8]", "result": "1591 ± 588", "unit": "ng/mL"}, {"measurement": "Serum LH ng/ml ± SEM", "setting": "21 day old female rats; [8]", "result": "111 ± 16", "unit": "ng/mL"}, {"measurement": "Serum FSH ng/ml ± SEM", "setting": "21 day old female rats; [9]", "result": "1992 ± 379", "unit": "ng/mL"}, {"measurement": "Serum LH ng/ml ± SEM", "setting": "21 day old female rats; [9]", "result": "81.0 ± 17", "unit": "ng/mL"}, {"measurement": "Serum FSH ng/ml ± SEM", "setting": "21 day old female rats; [10]", "result": "6432 ± 2216", "unit": "ng/mL"}, {"measurement": "Serum LH ng/ml ± SEM", "setting": "21 day old female rats; [10]", "result": "106.0 ± 3", "unit": "ng/mL"}, {"measurement": "FSH ng/ml Serum ± SEM at +120 min", "setting": "21 day old female rats; 50 ng/rat sc", "result": "3251 ± 485", "unit": "ng/mL"}, {"measurement": "LH ng/ml Serum ± SEM at +120 min", "setting": "21 day old female rats; 50 ng/rat sc", "result": "111 ± 26", "unit": "ng/mL"}, {"measurement": "FSH ng/ml Serum ± SEM at +120 min", "setting": "21 day old female rats; 150 ng/rat sc", "result": "5293 ± 686", "unit": "ng/mL"}, {"measurement": "LH ng/ml Serum ± SEM at +120 min", "setting": "21 day old female rats; 150 ng/rat sc", "result": "216 ± 46", "unit": "ng/mL"}, {"measurement": "+2 hrs LH ± SEM ng/ml serum", "setting": "21 day old female rats; 50 ng sc", "result": "108 ± 17", "unit": "ng/mL"}, {"measurement": "FSH ± SEM ng/ml serum (+2 hrs)", "setting": "21 day old female rats; 50 ng sc", "result": "1727 ± 222", "unit": "ng/mL"}, {"measurement": "+3 hrs LH ± SEM ng/ml serum", "setting": "21 day old female rats; 50 ng sc", "result": "20 ± 2.3", "unit": "ng/mL"}, {"measurement": "FSH ± SEM ng/ml serum (+3 hrs)", "setting": "21 day old female rats; 50 ng sc", "result": "1312 ± 163", "unit": "ng/mL"}, {"measurement": "+2 hrs LH ± SEM ng/ml serum", "setting": "21 day old female rats; 150 ng sc", "result": "144 ± 27", "unit": "ng/mL"}, {"measurement": "FSH ± SEM ng/ml serum (+2 hrs)", "setting": "21 day old female rats; 150 ng sc", "result": "2362 ± 293", "unit": "ng/mL"}, {"measurement": "+3 hrs LH ± SEM ng/ml serum", "setting": "21 day old female rats; 150 ng sc", "result": "38 ± 6.3", "unit": "ng/mL"}, {"measurement": "FSH ± SEM ng/ml serum (+3 hrs)", "setting": "21 day old female rats; 150 ng sc", "result": "1617 ± 143", "unit": "ng/mL"}, {"measurement": "release of LH (in words)", "setting": "21 day old female rats; dosage of 5 ng", "result": "significantly released LH"}, {"measurement": "FSH released", "setting": "21 day old female rats; dosage of 15 ng", "result": "1270 ± 140", "unit": "ng"}, {"measurement": "LH released relative to LHRH", "setting": "21 day old female rats; dosage of 50 ng, corrected for the level of LH before addition of the peptides", "result": "~50", "unit": "times"}, {"measurement": "potency compared with LHRH when tested biologically", "setting": "21 day old female rats; summary statement, test not specified", "result": "significantly more potent than LHRH itself"}]}, {"molecule": "CNC(=O)[C@@H]1CCCN1C(=O)[C@H](CCCNC(=N)N)NC(=O)[C@H](CC(C)C)NC(=O)[C@@H](Cc1cccnc1)NC(=O)[C@H](Cc1ccc(O)cc1)NC(=O)[C@H](CO)NC(=O)[C@H](Cc1c[nH]c2ccccc12)NC(=O)[C@H](Cc1c[nH]cn1)NC(=O)[C@@H]1CCC(=O)N1", "note": "[Peptide 21437, pryoGlu-His-Trp-Ser-Tyr-D-3-Pal-Leu-Arg-Pro-NHCH3]", "values": [{"measurement": "Serum FSH ng/ml SEM", "setting": "21 day old female rats; 50 ng/rat sc", "result": "1707 ± 518", "unit": "ng/mL"}, {"measurement": "Serum LH ng/ml SEM", "setting": "21 day old female rats; 50 ng/rat sc", "result": "47 ± 8", "unit": "ng/mL"}, {"measurement": "Serum FSH ng/ml SEM", "setting": "21 day old female rats; 150 ng/rat sc", "result": "2799 ± 783", "unit": "ng/mL"}, {"measurement": "Serum LH ng/ml SEM", "setting": "21 day old female rats; 150 ng/rat sc", "result": "111 ± 26", "unit": "ng/mL"}]}, {"molecule": "CCNC(=O)[C@@H]1CCCN1C(=O)[C@H](CCCNC(=N)N)NC(=O)[C@H](CC(C)C)NC(=O)[C@@H](Cc1c[nH]c2ccccc12)NC(=O)[C@H](Cc1ccc(O)cc1)NC(=O)[C@H](CO)NC(=O)[C@H](Cc1c[nH]c2ccccc12)NC(=O)[C@H](Cc1c[nH]cn1)NC(=O)[C@@H]1CCC(=O)N1", "note": "[D-Trp^6 Pro^9 Net--LHRH, pyroGlu--His--Trp--Ser--Tyr-- D-Trp--Leu--Arg--Pro--EA**]", "values": [{"measurement": "LH ng/ml Serum ± SEM ± 15 min", "setting": "21 day old female rats; Table VII, dosage 100 mg/rat sc (so in the source), ± 15 min", "result": "59 ± 10", "unit": "ng/mL"}, {"measurement": "LH ng/ml Serum ± SEM ± 60 min", "setting": "21 day old female rats; Table VII, dosage 100 mg/rat sc (so in the source), ± 60 min", "result": "228 ± 41", "unit": "ng/mL"}, {"measurement": "+2 hrs LH ± SEM ng/ml serum", "setting": "21 day old female rats; 150 ng sc", "result": "184 ± 29", "unit": "ng/mL"}, {"measurement": "FSH ± SEM ng/ml serum (+2 hrs)", "setting": "21 day old female rats; 150 ng sc", "result": "2260 ± 294", "unit": "ng/mL"}, {"measurement": "+3 hrs LH ± SEM ng/ml serum", "setting": "21 day old female rats; 150 ng sc", "result": "103 ± 9", "unit": "ng/mL"}]}]}
